Assay results from PubChem BioAssay AID330 (DTP/NCI, 2004).
Values joined by “and” are separate entries in the source; they are usually repeats but may differ in a detail not shown here. Identical values can stand only once. Inconclusive results and toxic doses are left out. How the source made its calls: active means survival T/C of 150% or more; inactive means T/C below 125% in these data.

System: P388 leukemia ip, CD2F1 mice, survival T/C
Assay: NCI In Vivo Anticancer Drug Screen. Data for tumor model P388 Leukemia (intraperitoneal) in CD2F1 (CDF1) mice
Details: endpoint: median survival time, higher = longer survival
Outline: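 Mice carrying the transplanted tumor received test compound or vehicle. Survival was recorded in each group, and the value is the treated-group measurement divided by that of the vehicle-treated control group.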

[1] = dose: 50.0 mg/kg/injection, schedule: Q01DX005 (ip), vehicle: saline with Tween-80
[2] = dose: 50.0 mg/kg/injection, schedule: Q01DX009 (ip), vehicle: saline with Tween-80
[3] = dose: 100.0 mg/kg/injection, schedule: Q01DX005 (ip), vehicle: saline with Tween-80
[4] = dose: 100.0 mg/kg/injection, schedule: Q01DX009 (ip), vehicle: saline with Tween-80
[5] = dose: 200.0 mg/kg/injection, schedule: Q01DX005 (ip), vehicle: saline with Tween-80
[6] = dose: 200.0 mg/kg/injection, schedule: Q01DX009 (ip), vehicle: saline with Tween-80
[7] = dose: 100.0 mg/kg/injection, schedule: Q04DX003 (ip), vehicle: Klucel (hydroxypropylcellulose) (HPC)
[8] = dose: 200.0 mg/kg/injection, schedule: Q04DX003 (ip), vehicle: Klucel (hydroxypropylcellulose) (HPC)
[9] = dose: 400.0 mg/kg/injection, schedule: Q04DX003 (ip), vehicle: Klucel (hydroxypropylcellulose) (HPC)
[10] = dose: 12.5 mg/kg/injection, schedule: Q01DX005 (ip), vehicle: saline with Tween-80
[11] = dose: 25.0 mg/kg/injection, schedule: Q01DX005 (ip), vehicle: saline with Tween-80
[12] = dose: 60.0 mg/kg/injection, schedule: Q01DX005 (ip), vehicle: saline with Tween-80
[13] = dose: 120.0 mg/kg/injection, schedule: Q01DX005 (ip), vehicle: saline with Tween-80
[14] = dose: 240.0 mg/kg/injection, schedule: Q01DX005 (ip), vehicle: saline with Tween-80
[15] = dose: 50.0 mg/kg/injection, schedule: Q01DX009 (ip), vehicle: saline
[16] = dose: 50.0 mg/kg/injection, schedule: Q01DX005 (ip), vehicle: Klucel (hydroxypropylcellulose) (HPC)
[17] = dose: 100.0 mg/kg/injection, schedule: Q01DX005 (ip), vehicle: Klucel (hydroxypropylcellulose) (HPC)

Measured: T/C

CC1(C)OC(=O)N=C1c1ccccc1Cl
inactive: dose: 60.0 mg/kg/injection, schedule: Q01DX005 (ip), vehicle: Klucel (hydroxypropylcellulose) (HPC) 108 % of control | dose: 120.0 mg/kg/injection, schedule: Q01DX005 (ip), vehicle: Klucel (hydroxypropylcellulose) (HPC) 104 % of control | dose: 240.0 mg/kg/injection, schedule: Q01DX005 (ip), vehicle: Klucel (hydroxypropylcellulose) (HPC) 108 % of control

C1CCN2CC3CCCN4CCCC(C2C1)C34 (centres undefined)
inactive: dose: 6.2 mg/kg/injection, schedule: Q01DX007 (ip), vehicle: carboxymethylcellulose (CMC) 91 % of control and 100 % of control | dose: 12.5 mg/kg/injection, schedule: Q01DX007 (ip), vehicle: carboxymethylcellulose (CMC) 91 % of control | dose: 25.0 mg/kg/injection, schedule: Q01DX007 (ip), vehicle: carboxymethylcellulose (CMC) 91 % of control

Cc1cc(=O)c2c(C)cccc2[nH]1
inactive: dose: 2.75 mg/kg/injection, schedule: Q01DX009 (ip), vehicle: saline with Tween-80 100 % of control | dose: 4.13 mg/kg/injection, schedule: Q01DX009 (ip), vehicle: saline with Tween-80 118 % of control | dose: 6.25 mg/kg/injection, schedule: Q01DX009 (ip), vehicle: saline with Tween-80 100 % of control | dose: 9.38 mg/kg/injection, schedule: Q01DX009 (ip), vehicle: saline with Tween-80 100 % of control

O=c1[nH]c(=S)nc2nc[nH]n12
inactive: dose: 25.0 mg/kg/injection, schedule: Q01DX009 (ip), vehicle: saline with Tween-80 100 % of control | [1] 98 % of control | [2] 97 % of control | [3] 100 % of control | [4] 100 % of control | [5] 103 % of control | [6] 106 % of control

CC(=O)Nc1cccc2[nH]c3ccccc3c(=O)c12
inactive: [1] 95 % of control | [3] 103 % of control | [5] 93 % of control

O=C(c1ccccc1)C(c1ccccc1)n1ncc2c1CCOC2 (centres undefined)
inactive: [7] 105 % of control | [8] 96 % of control | [9] 108 % of control

O=C(Nc1cccc(Cl)c1)OCC#CCCl
inactive: dose: 50.0 mg/kg/injection, schedule: Q01DX005 (ip), vehicle: saline + Tween-80 + alcohol 100 % of control | dose: 100.0 mg/kg/injection, schedule: Q01DX005 (ip), vehicle: saline + Tween-80 + alcohol 107 % of control | dose: 200.0 mg/kg/injection, schedule: Q01DX005 (ip), vehicle: saline + Tween-80 + alcohol 108 % of control

C[C@@H](O)[C@H](NSc1ccccc1[N+](=O)[O-])C(=O)NCCc1nc(-c2nc(C(=O)NCCCBr)cs2)cs1
inactive: dose: 6.25 mg/kg/injection, schedule: Q01DX005 (ip), vehicle: saline with Tween-80 93 % of control | [10] 95 % of control | [11] 90 % of control | [3] 97 % of control | [5] 86 % of control

CCOC(=O)C1=C(C)Nc2cc[nH]c(=O)c2C1c1ccccc1Cl (centres undefined)
inactive: [12] 107 % of control | [13] 103 % of control | [14] 104 % of control

Cc1ccc(S(=O)(=O)SSN2CCOCC2)cc1
inactive: [1] 103 % of control | [3] 100 % of control | [5] 100 % of control

C=CCOc1cc2c(cc1C/C=C/c1cc(OC)c(OC)c(OC)c1)OCO2
inactive: dose: 15.0 mg/kg/injection, schedule: Q01DX005 (ip), vehicle: saline with Tween-80 101 % of control | dose: 30.0 mg/kg/injection, schedule: Q01DX005 (ip), vehicle: saline with Tween-80 104 % of control | [12] 104 % of control and 89 % of control

C[C@H](CCC1=NC(C)(C)CO1)C1CCC2[C@@H]3C(O)C[C@@H]4CC(O)CC[C@]4(C)C3CC[C@@]21C (some centres undefined)
inactive: [12] 90 % of control | [13] 87 % of control

C=C(CSc1ccc(C(=O)O)c([N+](=O)[O-])c1)c1ccc([N+](=O)[O-])cc1
inactive: dose: 12.5 mg/kg/injection, schedule: Q01DX009 (ip), vehicle: saline 105 % of control | dose: 25.0 mg/kg/injection, schedule: Q01DX009 (ip), vehicle: saline 106 % of control | [15] 99 % of control and 90 % of control

O=C(CCl)NC(Cc1cccs1)C(=O)O (centres undefined)
inactive: [15] 98 % of control | dose: 100.0 mg/kg/injection, schedule: Q01DX009 (ip), vehicle: saline 93 % of control | dose: 200.0 mg/kg/injection, schedule: Q01DX009 (ip), vehicle: saline 96 % of control

O=C1[N-]C(=S)c2cccn21.O=C1[N-]C(=S)c2cccn21.[Pd+2]
inactive: [10] 103 % of control | [11] 103 % of control | [1] 99 % of control | [3] 99 % of control

CC(NN(C)C(=S)Nc1ccccc1)c1ccccn1 (centres undefined)
inactive: [1] 100 % of control | [3] 103 % of control | [5] 109 % of control

C=CCCC(C)CC (centres undefined)
inactive: [2] 105 % of control | [4] 103 % of control | [6] 100 % of control

CC(=O)OCC#CCN1CCC(C)CC1
inactive: dose: 50.0 mg/kg/injection, schedule: Q01DX005 (ip), vehicle: saline 97 % of control | dose: 100.0 mg/kg/injection, schedule: Q01DX005 (ip), vehicle: saline 95 % of control | dose: 200.0 mg/kg/injection, schedule: Q01DX005 (ip), vehicle: saline 102 % of control

O=C1N(Cl)C(=O)C2(c3ccccc3-c3ccccc32)N1Cl
inactive: [16] 100 % of control | [17] 108 % of control

CC1=C(C(=O)CC(=O)C(=O)Nc2ccc(C)cc2)Sc2ccccc2N1
inactive: [12] 105 % of control | [13] 108 % of control | [14] 106 % of control

CN(C)c1ccc(N=O)cc1
inactive: dose: 1.56 mg/kg/injection, schedule: Q01DX009 (ip), vehicle: saline 110 % of control | dose: 3.12 mg/kg/injection, schedule: Q01DX009 (ip), vehicle: saline 110 % of control | dose: 6.25 mg/kg/injection, schedule: Q01DX009 (ip), vehicle: saline 94 % of control

CNC(=O)OCc1ccc(NCCN(C)C)c2c(=O)c3cc(O)ccc3oc12
inactive: dose: 0.38 mg/kg/injection, schedule: Q01DX005 (ip), vehicle: Klucel (hydroxypropylcellulose) (HPC) 97 % of control | dose: 0.75 mg/kg/injection, schedule: Q01DX005 (ip), vehicle: Klucel (hydroxypropylcellulose) (HPC) 106 % of control | dose: 1.5 mg/kg/injection, schedule: Q01DX005 (ip), vehicle: Klucel (hydroxypropylcellulose) (HPC) 113 % of control | dose: 3.0 mg/kg/injection, schedule: Q01DX005 (ip), vehicle: Klucel (hydroxypropylcellulose) (HPC) 124 % of control | dose: 6.0 mg/kg/injection, schedule: Q01DX005 (ip), vehicle: Klucel (hydroxypropylcellulose) (HPC) 120 % of control

C=CCSC(=S)Nc1nc2ccc(C)cc2s1
inactive: [7] 96 % of control | [8] 98 % of control | [9] 97 % of control

COc1ccc(C2COc3cc4c(cc3C2)OCO4)cc1 (centres undefined)
inactive: [12] 98 % of control | [13] 98 % of control | [14] 96 % of control

O=c1c2oc3ccccc3c2cnn1CCl
inactive: [16] 103 % of control | [17] 103 % of control | dose: 200.0 mg/kg/injection, schedule: Q01DX005 (ip), vehicle: Klucel (hydroxypropylcellulose) (HPC) 96 % of control

O=c1[nH]cnc2c1cnn2CN1CCOCC1
inactive: dose: 25.0 mg/kg/injection, schedule: Q01DX005 (ip), vehicle: Klucel (hydroxypropylcellulose) (HPC) 106 % of control | [16] 117 % of control and 90 % of control | [17] 120 % of control

CC(=O)NCc1cc([N+](=O)[O-])ccc1O
inactive: [1] 101 % of control | [3] 94 % of control | [5] 99 % of control
